Seven compounds from PubChem BioAssay AID342 (DTP/NCI, 2004) can be followed below.

“And” between values parts separate entries of the source, which are not always exact repeats. Equal values may be shown once.

The test system of the assay is Swiss mice, Sarcoma 180 sc, mean tumor weight T/C. Put plainly: NCI In Vivo Anticancer Drug Screen. Data for tumor model Sarcoma 180 (subcutaneous) in Swiss mice. Conditions: endpoint: mean tumor weight, higher = larger tumour. The gist of the method:
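Antitumor activity is assessed in mice with transplantable tumors. Treated (T) and vehicle control (C) groups are compared on survival or tumor size.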

The mark [1] stands for this setting: dose: 25.0 mg/kg/injection, schedule: Q#A X014 (ip), vehicle: carboxymethylcellulose (CMC).

For `c1ncc2[nH]cnc2n1`, the T/C was 90 % of control (dose: 31.25 mg/kg/injection, schedule: Q#A X014 (ip), vehicle: carboxymethylcellulose (CMC)); 108 % of control (dose: 31.31 mg/kg/injection, schedule: Q#A X014 (ip), vehicle: carboxymethylcellulose (CMC)); 70 % of control (dose: 57.5 mg/kg/injection, schedule: Q01DX007 (ip), vehicle: carboxymethylcellulose (CMC)); 120 % of control (dose: 62.5 mg/kg/injection, schedule: Q#A X014 (ip), vehicle: carboxymethylcellulose (CMC)); 91 % of control (dose: 62.62 mg/kg/injection, schedule: Q#A X014 (ip), vehicle: carboxymethylcellulose (CMC)); 120 % of control (dose: 76.65 mg/kg/injection, schedule: Q#A X014 (ip), vehicle: carboxymethylcellulose (CMC)). Further, the T/C was 67 % of control (dose: 115.0 mg/kg/injection, schedule: Q01DX007 (ip), vehicle: carboxymethylcellulose (CMC)); 93 % of control (dose: 115.0 mg/kg/injection, schedule: Q#A X014 (ip), vehicle: carboxymethylcellulose (CMC)); 59 % of control (dose: 125.0 mg/kg/injection, schedule: Q#A X014 (ip), vehicle: carboxymethylcellulose (CMC)); 66 % of control (dose: 125.25 mg/kg/injection, schedule: Q#A X014 (ip), vehicle: carboxymethylcellulose (CMC)); 95 % of control (dose: 153.3 mg/kg/injection, schedule: Q#A X014 (ip), vehicle: carboxymethylcellulose (CMC)); 88 % of control (dose: 196.4 mg/kg/injection, schedule: Q01DX007 (ip), vehicle: carboxymethylcellulose (CMC)). Besides, the T/C was 99 % of control (dose: 200.4 mg/kg/injection, schedule: Q01DX007 (ip), vehicle: carboxymethylcellulose (CMC)); 42 % of control (dose: 230.0 mg/kg/injection, schedule: Q01DX007 (ip), vehicle: carboxymethylcellulose (CMC)); 39 % of control (dose: 230.0 mg/kg/injection, schedule: Q#A X014 (ip), vehicle: carboxymethylcellulose (CMC)); 90 % of control (dose: 245.5 mg/kg/injection, schedule: Q01DX007 (ip), vehicle: carboxymethylcellulose (CMC)); 27 % of control (dose: 250.0 mg/kg/injection, schedule: Q#A X014 (ip), vehicle: carboxymethylcellulose (CMC)); 111 % of control (dose: 250.5 mg/kg/injection, schedule: Q01DX007 (ip), vehicle: carboxymethylcellulose (CMC)). Also, the T/C reads like this: (dose: 250.5 mg/kg/injection, schedule: Q#A X014 (ip), vehicle: carboxymethylcellulose (CMC)) 9 % of control; (dose: 327.3 mg/kg/injection, schedule: Q01DX007 (ip), vehicle: carboxymethylcellulose (CMC)) 44 % of control; (dose: 334.0 mg/kg/injection, schedule: Q01DX007 (ip), vehicle: carboxymethylcellulose (CMC)) 68 % of control; (dose: 460.0 mg/kg/injection, schedule: Q01DX007 (ip), vehicle: carboxymethylcellulose (CMC)) 13 % of control; (dose: 491.0 mg/kg/injection, schedule: Q01DX007 (ip), vehicle: carboxymethylcellulose (CMC)) 48 % of control; (dose: 501.0 mg/kg/injection, schedule: Q01DX007 (ip), vehicle: carboxymethylcellulose (CMC)) 12 % of control.
Turning to `Nc1nc(N)c2[nH]cnc2n1`, the T/C is 106 % of control (dose: 6.25 mg/kg/injection, schedule: Q#A X014 (ip), vehicle: carboxymethylcellulose (CMC)); 103 % of control (dose: 11.25 mg/kg/injection, schedule: Q#A X014 (ip), vehicle: carboxymethylcellulose (CMC)); 83 % of control (dose: 22.5 mg/kg/injection, schedule: Q#A X014 (ip), vehicle: carboxymethylcellulose (CMC)); 121 % of control under setting [1]; 68 % of control (dose: 45.0 mg/kg/injection, schedule: Q#A X014 (ip), vehicle: carboxymethylcellulose (CMC)); 48 % of control (dose: 90.0 mg/kg/injection, schedule: Q#A X014 (ip), vehicle: carboxymethylcellulose (CMC)).
`CC1=C2C(=CC(C)(C)[C@@H]2O)C(=O)[C@](C)(O)C12CC2`: the T/C (dose: 0.1 mg/kg/injection, schedule: Q01DX007 (ip), vehicle: saline) was 63 % of control; the T/C (dose: 0.2 mg/kg/injection, schedule: Q01DX007 (ip), vehicle: saline) is 25 % of control; the T/C (dose: 0.3 mg/kg/injection, schedule: Q01DX007 (ip), vehicle: saline) was 57 % of control; the T/C (dose: 0.4 mg/kg/injection, schedule: Q01DX007 (ip), vehicle: saline) is 28 % of control; the T/C (dose: 25.0 micrograms/kg/injection, schedule: Q01DX007 (ip), vehicle: saline) was 70 % of control; the T/C (dose: 50.0 micrograms/kg/injection, schedule: Q01DX007 (ip), vehicle: saline) is 102 % of control. For the same compound, the T/C by setting is: (dose: 100.0 micrograms/kg/injection, schedule: Q01DX007 (ip), vehicle: saline) 84 % of control; (dose: 200.0 micrograms/kg/injection, schedule: Q01DX007 (ip), vehicle: saline) 100 % of control.
Consider `O=S(c1ccc(Cl)cc1)c1ccc(Cl)cc1`, for which the T/C is, setting by setting: (dose: 250.0 mg/kg/injection, schedule: Q01DX007 (ip), vehicle: carboxymethylcellulose (CMC)) 105 % of control; (dose: 500.0 mg/kg/injection, schedule: Q01DX007 (ip), vehicle: carboxymethylcellulose (CMC)) 96 % of control.
Turning to `CC1=C2C(=C[C@@](C)(CO)[C@@H]2O)C(=O)[C@](C)(O)C12CC2`, the T/C is 67 % of control and 78 % of control (dose: 0.8 mg/kg/injection, schedule: Q01DX007 (ip), vehicle: saline); 45 % of control (dose: 1.6 mg/kg/injection, schedule: Q01DX007 (ip), vehicle: saline).
For `NC(=O)Nc1n[se]nc1C(=O)O`, the T/C (dose: 20.0 mg/kg/injection, schedule: Q01DX007 (ip), vehicle: saline) was 111 % of control and the T/C (dose: 30.0 mg/kg/injection, schedule: Q01DX007 (ip), vehicle: saline) is 75 % of control.
As to `CCN(CC)CCNc1ccc(C)c2sc3ccccc3c(=O)c12`, the T/C reads like this: (dose: 4.87 mg/kg/injection, schedule: Q#A X014 (ip), vehicle: carboxymethylcellulose (CMC)) 120 % of control; (dose: 7.5 mg/kg/injection, schedule: Q01DX007 (ip), vehicle: carboxymethylcellulose (CMC)) 93 % of control; (dose: 9.75 mg/kg/injection, schedule: Q01DX007 (ip), vehicle: carboxymethylcellulose (CMC)) 60 % of control; (dose: 9.75 mg/kg/injection, schedule: Q#A X014 (ip), vehicle: carboxymethylcellulose (CMC)) 77 % of control; (dose: 12.5 mg/kg/injection, schedule: Q#A X014 (ip), vehicle: carboxymethylcellulose (CMC)) 85 % of control; (dose: 15.0 mg/kg/injection, schedule: Q01DX007 (ip), vehicle: carboxymethylcellulose (CMC)) 101 % of control. The T/C is, setting by setting: (dose: 19.5 mg/kg/injection, schedule: Q01DX007 (ip), vehicle: carboxymethylcellulose (CMC)) 72 % of control; (dose: 19.5 mg/kg/injection, schedule: Q#A X014 (ip), vehicle: carboxymethylcellulose (CMC)) 75 % of control; under setting [1], 64 % of control; (dose: 30.0 mg/kg/injection, schedule: Q01DX007 (ip), vehicle: carboxymethylcellulose (CMC)) 106 % of control; (dose: 31.2 mg/kg/injection, schedule: Q01DX007 (ip), vehicle: carboxymethylcellulose (CMC)) 117 % of control; (dose: 39.0 mg/kg/injection, schedule: Q#A X014 (ip), vehicle: carboxymethylcellulose (CMC)) 32 % of control. Moreover, the T/C (dose: 50.0 mg/kg/injection, schedule: Q#A X014 (ip), vehicle: carboxymethylcellulose (CMC)) was 35 % of control; the T/C (dose: 52.0 mg/kg/injection, schedule: Q01DX007 (ip), vehicle: carboxymethylcellulose (CMC)) was 82 % of control; the T/C (dose: 60.0 mg/kg/injection, schedule: Q01DX007 (ip), vehicle: carboxymethylcellulose (CMC)) is 55 % of control.

In general, T/C refers to the result in the treated group divided by that in the control group, in per cent.
